In patent US5876746A, “Transdermal patch and method for administering 17-deacetyl norgestimate alone or in combination with an estrogen” (Cygnus, Inc., priority 1996, dated 1999):
Where two headings read alike, the source gives them in different places. Each block holds one compound with its values, some of them ahead of it.

Method: Mixtures of Duro-Tak 87-2287, 0.26% aluminum acetylacetonate crosslinker, 6% 17-d-Ngm, 1% EE, and various permeation enhancers were prepared. These mixtures were cured and cast as a 100 micron thick (wet) layer onto a 3M 1022 polyester backing and dried. Skin flux tests were carried out on the resulting assemblies according to the procedure described in col. […] HPLC was used to assay for 17-d-Ngm and EE. A Perkin Elmer HPLC system with Diedoarray detector set at 245 nm and 215 nm for 17-d-Ngm and EE, respectively. The mobile phase was 55% water, 45% acetonitrile at a flow rate of 1.0 ml/min. Retention time was 4.5 and 3.0 min. for 17-d-Ngm and EE, respectively.
It was mixed with 17-d-Ngm, EE, 7% PVP (K30 from BASF; dissolved in n-propanol) and various enhancers. These mixtures were cast as a 100 micron thick (wet) layer onto a 3M 1022 polyester backing and dried. Skin flux tests were carried out on the resulting assemblies as in Example 1.
PIB solutions were prepared by dissolving VISTANEX L100, Vistanex LM-MS-LC, and polybutene (Indopol H1900) in hexane. Suspensions of PVP-CLM, 17-d-Ngm, EE and various enhancers in ethanol/ethyl acetate were prepared. The PIB solution was added to the drug suspensions and the resulting mixtures were thoroughly blended. The mixtures were cast as a 10 mil thick (wet) layer onto release liners and dried at 70° C. for 40 min. Saranex 2015 backing was laminated to the subassembly. Skin flux studies were carried out on these assemblies as in Example 1.

Flux (Table 5: 2% 17β-estradiol, 2% 17-deacetynorgetimate, 20% PVP-CLM, 76% PIB adhesive): 0.20 μg/cm^2 /hr
SMILES: C[C@]12CC[C@@H]3c4ccc(O)cc4CC[C@H]3[C@@H]1CC[C@@H]2O [17β-estradiol]

Flux (Table 1: 2% TG + 4% OL, Duro-Tak 87-2287, 6% 17-d-Ngm, 1% EE): 0.061 ± 0.007 μg/cm^2 /hr
Flux (Table 1: 2% TG + 10% ML, Duro-Tak 87-2287, 6% 17-d-Ngm, 1% EE): 0.076 ± 0.005 μg/cm^2 /hr
Flux (Table 1: 2% TG + 10% PGML, Duro-Tak 87-2287, 6% 17-d-Ngm, 1% EE): 0.057 ± 0.009 μg/cm^2 /hr
Flux (Table 1: 3% TG, Duro-Tak 87-2287, 6% 17-d-Ngm, 1% EE): 0.043 ± 0.011 μg/cm^2 /hr
Flux (Table 1: 4% TG + 15% ML, Duro-Tak 87-2287, 6% 17-d-Ngm, 1% EE): 0.072 ± 0.002 μg/cm^2 /hr
Flux (Table 2: silicone 4202, 7% PVP, 2% 17-d-Ngm, 0.5% EE, 2% TG + 2% ML): 0.18 ± 0.02 μg/cm^2 /hr
Flux (Table 2: silicone 4202, 7% PVP, 4% 17-d-Ngm, 0.5% EE, 2% ML): 0.074 ± 0.008 μg/cm^2 /hr
Flux (Table 2: silicone 4202, 7% PVP, 4% 17-d-Ngm, 0.5% EE, 5% ML + 1% TG): 0.069 ± 0.007 μg/cm^2 /hr
Flux (Table 2: silicone 4202, 7% PVP, 6% 17-d-Ngm, 0.5% EE, 5% ML + 1% TG): 0.043 ± 0.004 μg/cm^2 /hr
Flux (Table 2: silicone 4202, 7% PVP, 6% 17-d-Ngm, 0.5% EE, 14% (TC:PGML; 80:20)): 0.062 ± 0.01 μg/cm^2 /hr
Flux (Table 2: silicone 4202, 7% PVP, 6% 17-d-Ngm, 0.5% EE, 14% PGML): 0.070 ± 0.01 μg/cm^2 /hr
Flux (Table 2: silicone 4202, 14% PVP, 4% 17-d-Ngm, 0.5% EE, 4% TG + 5% ML): 0.078 ± 0.01 μg/cm^2 /hr
Flux (Table 3: 0.1% EE, 1% 17-d-Ngm, 5% ML, 7% PVP-CLM, 86.9% silicone): 0.05 ± 0.002 μg/cm^2 /hr
Flux (Table 3: 0.1% EE, 1% 17-d-Ngm, 5% ML, 7% PVP-K30, 86.9% silicone): 0.04 ± 0.008 μg/cm^2 /hr
Flux (Table 4: PIB 1:5:4, 0.2% EE, 1.0% 17-d-Ngm, 20% PVP-CLM, 5% AMWAT): 0.05 ± 0.004 μg/cm^2 /hr
Flux (Table 4: PIB 1:5:4, 0.2% EE, 2.0% 17-d-Ngm, 20% PVP-CLM, 3% oleic acid): 0.06 ± 0.002 μg/cm^2 /hr
Flux (Table 4: PIB 1:5:4, 0.2% EE, 2.0% 17-d-Ngm, 20% PVP-CLM, 5% lauramide diethanoiamine): 0.06 ± 0.001 μg/cm^2 /hr
Flux (Table 4: PIB 1:5:4, 0.2% EE, 2.0% 17-d-Ngm, 20% PVP-CLM, 10% PGML): 0.09 ± 0.001 μg/cm^2 /hr
Flux (Table 4: PIB 1:5:4, 0.2% EE, 2.0% 17-d-Ngm, 20% PVP-CLM, 10/0.5% PGML/oleic acid): 0.10 ± 0.001 μg/cm^2 /hr
Flux (Table 4: PIB 1:5:4, 0.2% EE, 3.0% 17-d-Ngm, 20% PVP-CLM, 3% oleic acid): 0.04 ± 0.002 μg/cm^2 /hr
Flux (Table 4: PIB 1:5:4, 0.2% EE, 3.0% 17-d-Ngm, 20% PVP-CLM, 10% PGML): 0.07 ± 0.001 μg/cm^2 /hr
Flux (Table 4: PIB 1:5:4, 0.2% EE, 4.0% 17-d-Ngm, 20% PVP-CLM, 5% lauric acid N,N-dimethyl amide): 0.04 ± 0.001 μg/cm^2 /hr
Flux (Table 4: PIB 1:5:4, 0.3% EE, 4.0% 17-d-Ngm, 20% PVP-CLM, 8% PGIS): 0.10 ± 0.001 μg/cm^2 /hr
Flux (Table 4: PIB 1:5:4, 0.3% EE, 4.0% 17-d-Ngm, 20% PVP-CLM, 8/3% PGML/oleic acid): 0.14 ± 0.001 μg/cm^2 /hr
Flux (Table 4: PIB 1:5:4, 0.3% EE, 4.0% 17-d-Ngm, 20% PVP-CLM, 15% dibutylsebacate): 0.06 ± 0.005 μg/cm^2 /hr
Flux (Table 4: PIB 1:5:4, 0.3% EE, 4.0% 17-d-Ngm, 20% PVP-CLM, 15% ethyl oleate): 0.10 ± 0.001 μg/cm^2 /hr
Flux (Table 4: PIB 1:5:4, 0.3% EE, 4.0% 17-d-Ngm, 20% PVP-CLM, 15% isopropyl palmitate): 0.07 ± 0.001 μg/cm^2 /hr
Flux (Table 4: PIB 2:4:4, 0.3% EE, 4.0% 17-d-Ngm, 20% PVP-CLM, 20% propyl laurate): 0.06 ± 0.002 μg/cm^2 /hr
Flux (Table 6: 70.8% PIB, 20% PVP-CLM, 0.2% EE, 2% 71-d-Ngm, 7% lauryl lactate, skin permeability Low): 0.03 μg/cm^2 /hr
Flux (Table 6: 70.8% PIB, 20% PVP-CLM, 0.2% EE, 2% 71-d-Ngm, 7% lauryl lactate, skin permeability Medium): 0.08 μg/cm^2 /hr
Flux (Table 6: 72.8% PIB, 20% PVP-CLM, 0.2 EE, 2% 17-d-Ngm, 5% myristyl lactate, skin permeability not given): 0.09 μg/cm^2 /hr
Flux (Table 6: 72.85% PIB, 20% PVP-CLM, 0.15% EE, 5% lauryl lactate, skin permeability High): 0.08 μg/cm^2 /hr
Flux (Table 6: 72.85% PIB, 20% PVP-CLM, 0.15% EE, 5% lauryl lactate, skin permeability Low): 0.02 μg/cm^2 /hr
Flux (Table 6: 72.85% PIB, 20% PVP-CLM, 0.15% EE, 5% lauryl lactate, skin permeability Medium): 0.05 μg/cm^2 /hr
SMILES: C#C[C@]1(O)CC[C@H]2[C@@H]3CCc4cc(O)ccc4[C@H]3CC[C@@]21C [EE, ethinyl estradiol]
